Test results as given in US6525017B1, “Using glutathiane to protect neurons from injury” (The Children's Medical Center Corporation, priority 1989, dated 2003).

Tests used:
Format in all cases: cell-based
NMDA receptor [1] = assay: NMDA-induced responses recorded in intact chick retina (eyecup, optic nerve DC potential)
Description: Eyecups were obtained from 2-to 5-day-old chicks and continuously superfused at 20-25° C. at a rate of 8 ml/min with Tyrodes solution (130 mM NaCl, 3 mM KCl, 17 mM dextrose, 20 mM NaHCO3, 0.01% w/v phenol red; bubbled with a gas mixture of 95% O2 and 5% CO2) containing 5 mM MgCl2 to reduce synaptic activity. […] Traces were triggered by the opening of two solenoid valves that shunted approximately 200 μl of agonist (1, 1-dimethyl-4-phenyl-piperazinium iodide, DMPP or NMDA) into the perfusion line, Agonists reached the preparation approximately 7s later. […] Some experiments were performed in the presence of 10 μg/ml catalase and 1 μg/ml superoxide dismutase. Antagonists, reducing agents, or oxidizing agents were introduced directly via the perfusate.

NMDA receptor [2] = assay: Whole-cell patch-clamp NMDA responses in cultured rat cortical neurons
Description: The effects of reduction and oxidation on the NMDA response were further examined in cultured mammalian central neurons with the use of patch electrodes. Experiments were performed on neurons in primary cultures of CD rat neocortex derived from embryonic day 16 fetuses and plated onto glass coverslips coated with collagen and poly-L-lysine. The growth medium consisted of a v/v mixture of 80% DMEM (Sigma D5530), 10% F-12 (Sigma), 10% heat-inactivated, iron-supplemented serum (Hyclone), with 25 mM HEPES, 24 U/ml penicillin, and 24 μg/ml streptomycin, supplemented to 2 mM glutamine. Recordings were performed on 3- to 13-week-old cultures, and neurons studied ranged from 12 to 18 μm in diameter. The extracellular solution for the physiological experiments contained 137 mM NaCl, 1 mM NaHCO3, 0.34 mM NaHPO4, 5.36 mM KCl, 0.44 mM KH2PO4, 2.5 mM CaCl2, 5 mM HEPES-NaOH, 22.2 mM dextrose, 0.001% (v/v) phenol red, adjusted to pH 7.2 with 0.3 N NaOH (no added magnesium, except where noted). Tetrodotoxin (TTX) (1 μM) was routinely added to reduce synaptic activity. The intracellular (pipette) solution contained 120 mM CsCl, 20 mM TEA-Cl, 2 mM MgCl2, 1 mM CaCl2, 1.5-2.25 mM EGTA, and 10 mM HEPES-NAOH, adjusted to pH 7.2 with concentrated TEA-OH. Electrophysiological measurements were performed at 33° C.-35° C. with patch electrodes (4-8 MΩ), essentially as described in Lipton et al. J. Physiol 385:361, 1987. Lipton et al. 1987 includes the following disclosure of electrophysiological recordings by patch clamp from solitary neurons:
“. . . patch-clamp recordings were made . . . following the methods of Hamill et al. (1981) using an EPC-7 amplifier (List Electronic, Darmstadt, F.R.G.). Patch electrodes had resistances of 3-5 MΩ when filled with Na^+ or K^+ saline. Patch electrodes were used to record whole-cell currents under voltage clamp as well as single-channel currents from patches of membrane excised from the cell. The indifferent electrode was a Ag-AgCl wire connected to the culture dish via an agarose bridge. Holding and command potentials (VH and Vc, respectively (were generated by a digital-to-analog converter (Cheshire Data, Hamden, Conn., U.S.A.) interfaced with a PDP 11/23 or 11/73 computer (Digital Equipment Corp., Maynard, Mass., U.S.A.). Data collection was also controlled by the computer; data were sampled and digitized with a 12-bit, 125 kHz analog-to-digital converter (Data Translation, Marlboro, Mass., U.S.A., Model DT2782DMA) and viewed on a Hewlett-Packard digital display (Model 1345A). The sampling rate was set at 10 μs to 50 ms depending on the level of analysis. Using the amplifier test circuit, the digitized data were accurate to within 1%. The signals were low-pass filtered at a setting appropriate to the sampling frequency (Ithaco, Ithaca, N.Y., U.S.A., Model 4302 with a Bessel frequency cut-off characteristic of 48 dB/octave). Leakage currents and liquid junction potentials were corrected as described in Fenwick, Marty & Neher [J. Physiol. 331:577-597] (1982a). Using the EPC-7 circuit, analog compensation of the series resistance was applied. This ensured a relatively small error due to the voltage drop across the series resistance (less than or equal to that calculated by Marty & Neher, 1985 [J. Physiol. 367:117-141]). Data were stored on a 30 megabyte Winchester disk (Data Systems Design, San Jose, Calif., U.S.A., Model 880). […]

NMDA receptor [3] = assay: Whole-cell NMDA responses in isolated rat retinal ganglion cells
Description: The third central neuronal preparation in which the effects of oxidation and reduction on NMDA responses were tested was the isolated rat retinal ganglion cell. Postnatal retinal ganglion cells were identified and cultured as described in Lipton et al., supra. Physiological solutions and experimental protocol were the same as described for cortical neurons (Example 2), except that TTX was excluded from the extracellular fluid, since whole-cell recordings were performed on neurons that were solitary and had no apparent connections to other cells and no spontaneous action potentials.
These cells have well-characterized, albeit small, NMDA responses. Treatment with 2 mM DTT (1-3 min) produced potentiation of the response elicited by 200 μM NMDA and 1 μM glycine (250%±130% of control; range, 220%-320%). […] Glycine (1 μM) potentiation of NMDA (200 μM) responses occurred in both the reduced and the oxidized states. […] The effects of reduction and oxidation could be repeated in alternating fashion in these cells for as long as the recording remained stable.

Row | Structure (SMILES) | decrease of NMDA response following oxidation (NMDA receptor [1]; 0.1-1.0 mM DTNB applied for 5 min, compared with controls, mean ± spread) | decrease of NMDA response following oxidation, range (NMDA receptor [1]; 0.1-1.0 mM DTNB applied for 5 min, range) | decrease of NMDA response (NMDA receptor [2]; 1-3 min treatment with 0.1-1.0 mM DTNB, mean ± spread) | decrease of NMDA response, range (NMDA receptor [2]; 1-3 min treatment with 0.1-1.0 mM DTNB, range) | decrement of the native NMDA response (NMDA receptor [3]; 0.1-0.2 mM DTNB, mean ± spread) | decrement of the native NMDA response, range (NMDA receptor [3]; 0.1-0.2 mM DTNB, range) | response to NMDA, % of control (potentiation) (NMDA receptor [1]; 100 μM NMDA, DTT 1-2 mM applied for 10-25 min, mean ± spread) | response to NMDA, % of control, range (NMDA receptor [1]; 100 μM NMDA, DTT 1-2 mM applied for 10-25 min, range) | voltage-clamped NMDA response, % of control (potentiation) (NMDA receptor [2]; 10-100 μM NMDA + 1 μM glycine, 1-5 min treatment with 0.5-2.0 mM DTT, mean ± spread) | voltage-clamped NMDA response, % of control, range (NMDA receptor [2]; 10-100 μM NMDA + 1 μM glycine, 1-5 min treatment with 0.5-2.0 mM DTT, range) | NMDA response on reapplication of DTT after oxidation (NMDA receptor [2]; after DTNB oxidation) | NMDA response, % of control (potentiation) (NMDA receptor [3]; 200 μM NMDA + 1 μM glycine, 2 mM DTT 1-3 min, mean ± spread) | NMDA response, % of control, range (NMDA receptor [3]; 200 μM NMDA + 1 μM glycine, 2 mM DTT 1-3 min, range)
1 | O=C(O)c1cc(SSc2ccc([N+](=O)[O-])c(C(=O)O)c2)ccc1[N+](=O)[O-] [DTNB, 5′-5′-dithiobis-2-nitrobenzoic acid] | 81.6%±24.1% | 43%-100% | 22.9%±12.9% | 0%-39.5% | 49.4%±9.4% | 37%-60% | – | – | – | – | – | – | –
2 | O[C@@H](CS)[C@@H](O)CS [DTT, dithothreitol] | – | – | – | – | – | – | 530%±280% | 200%-860% | 250%±140% | 220%-330% | always restored the NMDA response to greater than control levels | 250%±130% | 220%-320%
